Test results from patent publication US20050208549A1, “Testing endosymbiont cellular organelles and compounds identifiable therewith” (priority 2000, published 2005).

What was measured:
[1] = Peripheral atrophy, Lipodystrophy; d4T > others; cited from earlier work
[2] = tested on: peripheral blood mononuclear cells (PBMCs); assay: NASBA ratio of mitochondrial RNA to chromosome-encoded RNA in cultured PBMCs; assay type: cell-based, human (healthy blood donor); details: culture period of five days, 6 μM and 60 μM
Procedure: (§1) In Table 1, the primers and probes used in the examples are summarized. Standard NASBA nucleic acid amplification reactions were performed in a 20 μl reaction volume and contained: 40 mM Tris-pH 8.5, 70 mM KCl, 12 mM MgCl2, 5 mM dithiothreitol, 1 mM dNTPs (each), 2 mM rNTPs (each), 0.2 μM primer (each), 0.05 μM molecular beacon, 375 mM sorbitol, 0.105 μg/μl bovine serum albumin, 6.4 units AMV RT, 32 units T7 RNA polymerase, 0.08 units RNAse H and input nucleic acid. The complete mixture, except the enzymes, sorbitol and/or bovine serum albumin was, prior to adding the enzyme mixture, heated to 65° C. for two minutes in order to denature any secondary structure in the RNA and to allow the primers to anneal. After cooling the mixture to 41° C., the enzymes were added. The amplification took place at 41° C. for 90 minutes in a fluorimeter (CytoFluor 2000) and the fluorescent signal was measured every minute (using the filter set 530/25 nm and 485/30 nm). For amplification of DNA target sequences, the 65° C. denaturation step was replaced with a 95° C. denaturation step for two to five minutes.
(§2) To achieve quantification, a dilution series of target sequences for a particular primer set was amplified and the time points at which the reactions became positive (the time to positivity, TTP) were plotted against the input amounts of nucleic acid. This way a calibration curve was created that could be used to read TTP values of reactions with unknown amounts of input and deduce the input amount.
Cells (fibroblasts and PBMCs) were cultured under standard conditions in standard media known to persons skilled in the art with the addition of drugs or putative toxic or stimulating compounds as defined in the examples. […] A small aliquot of the isolated nucleic acid was analyzed on an agarose gel and the remainder stored at −80° C. until further analysis. […]

Fibroblast cells [3] = assay: NASBA ratio of mitochondrial DNA to chromosomal DNA in cultured fibroblast cells; assay type: cell-based; details: culture period of four weeks, antiviral drugs at 3 μM and 30 μM
Procedure: as §1, with “For amplification of DNA target sequences, the 65° C. denaturation step was replaced with a 95° C. denaturation step for two to five minutes.” left out
as §2, with “amount. […]” for “amount.”

Fibroblast cells [4] = assay: NASBA ratio of mitochondrial RNA to chromosomal DNA in cultured fibroblast cells; assay type: cell-based; details: culture period of four weeks, antiviral drugs at 3 μM and 30 μM
Procedure: as §1, with “For amplification of DNA target sequences, the 65° C. denaturation step was replaced with a 95° C. denaturation step for two to five minutes.” left out
as §2, with “amount. […]” for “amount.”

Fibroblast cells [5] = assay: NASBA ratio of mitochondrial RNA to mitochondrial DNA in cultured fibroblast cells; assay type: cell-based; details: culture period of four weeks, antiviral drugs at 3 μM and 30 μM
Procedure: as §1, with “For amplification of DNA target sequences, the 65° C. denaturation step was replaced with a 95° C. denaturation step for two to five minutes.” left out
as §2, with “amount. […]” for “amount.”

Fibroblast cells [6] = assay: NASBA ratio of chromosome-encoded RNA to chromosomal DNA in cultured fibroblast cells; assay type: cell-based; details: culture period of four weeks, antiviral drugs at 3 μM and 30 μM
Procedure: as §1, with “For amplification of DNA target sequences, the 65° C. denaturation step was replaced with a 95° C. denaturation step for two to five minutes.” left out
as §2, with “amount. […]” for “amount.”

Fibroblast cells [7] = assay: NASBA ratio of mitochondrial RNA to chromosome-encoded RNA in cultured fibroblast cells; assay type: cell-based; details: culture period of four weeks, antiviral drugs at 3 μM and 30 μM
Procedure: as §1, with “For amplification of DNA target sequences, the 65° C. denaturation step was replaced with a 95° C. denaturation step for two to five minutes.” left out
as §2, with “amount. […]” for “amount.”

change in ratio of mitochondrial RNA to chromosome-encoded RNA [2]	SMILES	Rate (%) of mitochondrial toxicity, affected organ Fat [1]	change in mitochondrial DNA to chromosomal DNA ratio (Fibroblast cells [3])	change in mitochondrial RNA to chromosomal DNA ratio (Fibroblast cells [4])	change in mitochondrial RNA to mitochondrial DNA ratio (Fibroblast cells [5])	change in ratio of chromosome-encoded RNA and chromosomal DNA (Fibroblast cells [6])	change in mitochondrial RNA to chromosome-encoded RNA ratio (Fibroblast cells [7])
no measurable change	Cc1cn([C@H]2C=C[C@@H](CO)O2)c(=O)[nH]c1=O [D4T]	50%					
	CC[n+]1c(-c2ccccc2)c2cc(N)ccc2c2ccc(N)cc21 [ethidium bromide]		decline in mitochondrial DNA content	decline in mitochondrial RNA content	decline in mitochondrial RNA and DNA content	no measurable change	decline in mitochondrial RNA content
